From ChEMBL document CHEMBL1144049, “Functional assay and structure-activity relationships of new third-generation P-glycoprotein inhibitors” (Bioorg Med Chem, 2008)

Tests used:
[1] = biological target: T1, ATP-dependent translocase ABCB1 (Homo sapiens, UniProt P08183); experiment: Inhibition of human Pgp in A2780 cells after 30 mins by calcein AM assay; format: cell-based
[2] = biological target: T1, ATP-dependent translocase ABCB1; experiment: Inhibition of human Pgp in A2780 cells after 30 mins by Hoechst 33342 assay; format: cell-based
[3] = biological target: ATP-dependent translocase ABCB1 (Mus musculus, UniProt P06795); experiment: Inhibition of mouse Pgp in EMT6/AR1.0 cells after 1 hr by daunorubicin accumulation assay; format: cell-based
Chain of ATP-dependent translocase ABCB1 (Mus musculus, UniProt P06795) (P06795 whole entry): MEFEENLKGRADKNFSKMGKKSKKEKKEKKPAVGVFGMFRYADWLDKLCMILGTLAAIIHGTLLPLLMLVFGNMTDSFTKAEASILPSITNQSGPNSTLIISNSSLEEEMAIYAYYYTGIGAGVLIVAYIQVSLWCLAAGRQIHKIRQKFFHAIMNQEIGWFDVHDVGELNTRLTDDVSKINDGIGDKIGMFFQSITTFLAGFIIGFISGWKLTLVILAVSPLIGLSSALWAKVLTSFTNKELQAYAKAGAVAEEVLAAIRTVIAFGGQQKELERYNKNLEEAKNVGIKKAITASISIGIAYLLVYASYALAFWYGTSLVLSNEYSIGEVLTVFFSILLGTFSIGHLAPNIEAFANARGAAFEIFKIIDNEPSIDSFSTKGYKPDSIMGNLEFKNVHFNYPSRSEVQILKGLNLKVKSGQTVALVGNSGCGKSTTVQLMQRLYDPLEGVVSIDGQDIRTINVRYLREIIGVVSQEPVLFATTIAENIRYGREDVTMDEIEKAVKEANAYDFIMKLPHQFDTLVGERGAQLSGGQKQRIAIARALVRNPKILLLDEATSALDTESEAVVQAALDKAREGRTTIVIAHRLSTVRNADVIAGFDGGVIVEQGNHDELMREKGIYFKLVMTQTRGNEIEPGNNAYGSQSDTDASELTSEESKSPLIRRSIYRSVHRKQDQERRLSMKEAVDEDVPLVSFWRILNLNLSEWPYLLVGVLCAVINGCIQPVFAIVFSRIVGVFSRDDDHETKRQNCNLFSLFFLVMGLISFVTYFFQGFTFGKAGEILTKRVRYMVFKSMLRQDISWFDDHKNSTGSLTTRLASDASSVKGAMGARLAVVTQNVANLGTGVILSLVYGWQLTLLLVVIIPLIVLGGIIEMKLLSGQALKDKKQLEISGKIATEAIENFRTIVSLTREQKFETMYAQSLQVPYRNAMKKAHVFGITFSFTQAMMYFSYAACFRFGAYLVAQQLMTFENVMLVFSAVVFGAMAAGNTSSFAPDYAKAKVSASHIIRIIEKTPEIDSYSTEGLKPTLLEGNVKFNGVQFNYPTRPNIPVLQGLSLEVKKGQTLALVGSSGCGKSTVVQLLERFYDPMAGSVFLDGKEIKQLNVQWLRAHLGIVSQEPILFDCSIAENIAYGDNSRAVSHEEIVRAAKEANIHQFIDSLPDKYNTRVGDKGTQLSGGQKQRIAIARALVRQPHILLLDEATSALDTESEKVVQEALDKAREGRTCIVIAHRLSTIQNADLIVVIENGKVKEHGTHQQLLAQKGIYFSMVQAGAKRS

[4] = biological target: T1, ATP-dependent translocase ABCB1
Description: Inhibition of Pgp by daunorubicin accumulation assay

T1 sequence (P08183 whole entry): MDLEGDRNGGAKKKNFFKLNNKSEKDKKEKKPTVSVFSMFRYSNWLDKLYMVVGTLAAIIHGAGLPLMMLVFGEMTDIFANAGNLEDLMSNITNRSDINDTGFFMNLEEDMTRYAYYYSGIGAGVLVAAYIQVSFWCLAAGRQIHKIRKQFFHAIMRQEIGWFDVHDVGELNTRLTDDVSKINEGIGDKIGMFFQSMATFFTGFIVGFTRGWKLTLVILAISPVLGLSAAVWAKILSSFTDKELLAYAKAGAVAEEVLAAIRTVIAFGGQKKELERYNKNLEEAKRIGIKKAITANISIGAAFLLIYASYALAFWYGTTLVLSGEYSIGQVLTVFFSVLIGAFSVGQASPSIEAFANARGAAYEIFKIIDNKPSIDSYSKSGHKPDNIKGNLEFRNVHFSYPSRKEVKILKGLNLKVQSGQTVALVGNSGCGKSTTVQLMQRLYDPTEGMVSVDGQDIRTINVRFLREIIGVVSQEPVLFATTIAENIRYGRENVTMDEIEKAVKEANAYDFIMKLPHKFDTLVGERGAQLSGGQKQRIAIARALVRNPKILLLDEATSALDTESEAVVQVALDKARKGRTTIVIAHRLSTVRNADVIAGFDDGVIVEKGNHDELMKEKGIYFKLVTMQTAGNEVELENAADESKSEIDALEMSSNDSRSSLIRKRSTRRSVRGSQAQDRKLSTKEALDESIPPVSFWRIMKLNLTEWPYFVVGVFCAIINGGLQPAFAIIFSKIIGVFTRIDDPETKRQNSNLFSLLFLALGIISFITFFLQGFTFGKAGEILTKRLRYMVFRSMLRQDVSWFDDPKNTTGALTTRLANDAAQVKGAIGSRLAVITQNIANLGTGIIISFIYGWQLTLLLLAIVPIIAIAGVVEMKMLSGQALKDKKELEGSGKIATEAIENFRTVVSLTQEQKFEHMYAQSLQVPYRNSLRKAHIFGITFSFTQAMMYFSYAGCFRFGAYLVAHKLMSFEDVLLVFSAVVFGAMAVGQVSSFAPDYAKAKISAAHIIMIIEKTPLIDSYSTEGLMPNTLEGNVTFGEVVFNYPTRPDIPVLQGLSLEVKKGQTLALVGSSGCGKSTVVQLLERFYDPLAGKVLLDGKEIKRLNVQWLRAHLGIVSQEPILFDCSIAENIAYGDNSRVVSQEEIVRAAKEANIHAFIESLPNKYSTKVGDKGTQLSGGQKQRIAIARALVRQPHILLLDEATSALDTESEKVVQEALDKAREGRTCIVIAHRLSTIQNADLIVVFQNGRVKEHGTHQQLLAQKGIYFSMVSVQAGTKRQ

Compound | IC50 [1] [nM] | IC50 [2] [nM] | IC50 [3] [nM] | IC50 [4] [nM]
O=C(Nc1ccc(CCN2CCc3ccccc3C2)cc1)c1ccccc1[N+](=O)[O-] | 12300 | 13500 |  | 
COc1cc2c(cc1OC)CN(CCc1ccc(NC(=O)c3ccnc4ccccc34)cc1)CC2 | 2820 | 2240 |  | 
COc1cc2c(cc1OC)CN(CCc1ccc(NC(=O)c3cnc4ccccc4n3)cc1)CC2 | 490 | 209 |  | 
COc1cc2c(cc1OC)CN(CCc1ccc(NC(=O)c3ccccc3NC(=O)c3ccc(C)cc3)cc1)CC2 | 692 | 525 | 260 | 
COc1cc2c(cc1OC)CN(CCc1ccc(NC(=O)c3cnc4ccccc4c3)cc1)CC2 | 646 | 145 |  | 
COc1cc2c(cc1OC)CN(CCc1ccc(NC(=O)c3cc4ccccc4cn3)cc1)CC2 | 851 | 776 |  | 
COc1cc2c(cc1OC)CN(CCc1ccc(NC(=O)c3cccc(Br)c3)cc1)CC2 | 2290 | 3240 |  | 
COc1cc2c(cc1OC)CN(CCc1ccc(NC(=O)c3cccc4ccccc34)cc1)CC2 | 1410 | 1860 |  | 
COc1cc2c(cc1OC)CN(CCc1ccc(NC(=O)c3ccc4ccccc4c3)cc1)CC2 | 776 | 776 |  | 
O=C(Nc1ccc(CCN2CCc3ccccc3C2)cc1)c1ccc([N+](=O)[O-])cc1 | 4470 | 5010 |  | 
COc1cc2c(cc1OC)CN(CCc1ccc(NC(=O)c3ccc(N)cc3)cc1)CC2 | 4070 | 7080 |  | 
COc1cc2c(cc1OC)CN(CCc1ccc(NC(=O)c3ccccc3NC(=O)c3ccccc3)cc1)CC2 | 724 |  | 300 | 250
COc1cc2c(cc1OC)CN(CCc1ccc(NC(=O)c3cc(OC)c(OC)cc3NC(=O)c3cnc4ccccc4c3)cc1)CC2 |  | 126 | 64 | 38
COc1cc2c(cc1OC)CN(CCc1ccc(NC(=O)c3ccccc3Br)cc1)CC2 | 4270 | 3470 |  | 
COc1cc2c(cc1OC)CN(CCc1ccc(NC(=O)c3ccc4ncccc4c3)cc1)CC2 | 724 | 741 |  | 
COc1cc2c(cc1OC)CN(CCc1ccc(NC(=O)c3cccnc3)cc1)CC2 | 4170 | 3160 |  | 
Nc1ccc(C(=O)Nc2ccc(CCN3CCc4ccccc4C3)cc2)cc1 | 13500 | 4170 |  | 
O=C(Nc1ccccc1C(=O)Nc1ccc(CCN2CCc3ccccc3C2)cc1)c1cnc2ccccc2c1 | 447 |  | 320 | 
COc1cc2c(cc1OC)CN(CCc1ccc(NC(=O)c3ccccc3N)cc1)CC2 | 9120 | 11200 |  | 
COc1cc2c(cc1OC)CN(CCc1ccc(NC(=O)c3ccccc3[N+](=O)[O-])cc1)CC2 | 4790 | 5500 |  | 
COc1cc2c(cc1OC)CN(CCc1ccc(NC(=O)c3ccccc3NC(=O)c3cnc4ccccc4c3)cc1)CC2 | 240 | 166 | 50 | 87
COc1cc2c(cc1OC)CN(CCc1ccc(NC(=O)c3ccc([N+](=O)[O-])cc3)cc1)CC2 | 1100 | 1380 |  | 
